The values below come from patent US6825348B2, “Antiviral compounds” (Academia Sinica, priority 2002, dated 2004).

For the assay, the target named is PRPP synthetase (UniProt P0A717). As to the kind of experiment: PRPP synthetase reaction, conversion to diphosphates and inhibition of AMP phosphorylation. It counts as biochemical. The procedure: Enzymatic Conversion of Acyclic Nucleoside Phosphonates and Nucleotide 5′-Monophosphate Analog to Their Antivirally Active Diphosphates (Triphosphate Equivalents). Substrate affinities of acyclic nucleoside phosphonates 4, 20, 21, and dinucleotide analog 24 for PRPP synthetase as well as their inhibitory effect against the enzyme were evaluated according to the established procedures. See, e.g., Balzarini et al. (1991) J. Biol. Chem. 266: 8686-8689 and references cited therein. The assays were then terminated after 4 h by the addition of MeOH. HPLC on an anion-exchange Partisphere column was used to analyze the formation of […] 21pp, PMEApp, 4pp, 20pp, and 24pp.

[1] abbreviates: conversion to diphosphate by PRPP synthetase.

Turning to `Nc1ncnc2c1ncn2[C@@H]1O[C@H](COP(=O)(O)O)[C@@H](O)[C@H]1O` [AMP 21, adenosine 5′-monophosphate, reference compound], the Vmax under setting [1] worked out at 14.270 μmol/unit/h and the “Vmax” value (phosphorylation by PRPP synthetase, no unit in text) is 14.

As to `Nc1ncnc2ncn(CCOCP(=O)(O)O)c12` [Compound 20, 7-[2-(Phosphonomethoxy)ethyl]adenine], the “substrate affinity for PRPP synthetase, times less than that of PMEA 4” value is 4 times. Moreover, the Vmax under setting [1] is given as 0.013 μmol/unit/h. As to `Nc1ncnc2c1ncn2CCOCP(=O)(O)O` [PMEA 4, 9-[2-(phosphonomethoxy)ethyl]adenine, reference compound], under setting [1], the Vmax was found to be 0.096 μmol/unit/h.
